# Measurements reported in publication PMC12535076, “Neurotherapeutic effects of Vutiglabridin as a Paraoxonase-2 modulator in preclinical models of Parkinson’s disease” (Molecular Neurodegeneration, 2025).
# What was measured:
# shPON2-SH-SY5Y cells = test: Mitochondrial activity in PON2 knockdown (shPON2) and shSCR SH-SY5Y cells treated with MPP+; assay type: cell-based, human
# Procedure: Human SH-SY5Y neuroblastoma cells (ATCC® (CRL-2266™; Manassas, VA, USA) were first cultured in Dulbecco’s Modified Eagle Medium (DMEM)/F12 supplemented with 10% fetal bovine serum (FBS), 100 U/mL penicillin, and 100 µg/mL streptomycin (complete media, CM) at 37 °C with 5% CO2. Cells (5 × 10^4 cells/well) then were cultured in 96-well plates for 24 h followed by incubation in serum-deficient media (SDM, culture media containing 0.5% FBS) for 16 h. Quiescent cells in SDM were incubated with 1 mM MPP^+ or dimethyl sulfoxide (DMSO) vehicle for 24 h, then treated with Vuti at the designated doses for 24 h. The treated cells were harvested according to the purpose and analyzed.
# Lentiviral PON2 shRNA (h) (sc-62838) was purchased from Santa Cruz Co. (Santa Cruz, CA, USA). shRNA lentiviral particle transduction was performed according to the manufacturer’s protocol. Total RNA was isolated with a Trizol reagent (Invitrogen, Carlsbad, CA, USA). […] PON2 knockdown was verified by quantitative PCR, and the primers and methods used are described in the supplementary material.
# A systemic cell-based mitochondrial function analysis system was established using SH-SY5Y cells in 96-well plates based on fluorescence detection methods as described previously. The assay system covers quantitative assays for methyl thiazyl tetrazolium-mitochondrial dehydrogenase activity (MTT), TMRE-based mitochondrial membrane potential (TMRE), ATP contents, and ROS of cells. […] Fluorescence intensities at 550 nm/580 nm for TMRE, at 510 nm/580 nm MitoSOX, or at 494 nm/522 nm for DCF-DA were normalized by Hoechst intensity at 355 nm/480 nm (Spectramax Gemini EM, Molecular Devices, Sunnyvale, CA, USA).
# Endogenous OCR was measured in adherent SH-SY5Y cells using a Seahorse XF-24 Analyzer (Seahorse Bioscience, Billerica, MA, USA) following the manufacturer’s protocol with minor modifications. […] The OCR was calculated from 3-min measurement cycles and normalized to cell number.
# MAO-A = target: T1, MAO-A (Homo sapiens, UniProt P21397); test: ROS Glo based MAO-A enzyme activity assay; assay type: biochemical; conditions: printed as 'separate MAO-B assay' within the MAO-A panel (b); read-out: IC50, ROS-Glo method, panel (b)
# T1 sequence (P21397 1-527): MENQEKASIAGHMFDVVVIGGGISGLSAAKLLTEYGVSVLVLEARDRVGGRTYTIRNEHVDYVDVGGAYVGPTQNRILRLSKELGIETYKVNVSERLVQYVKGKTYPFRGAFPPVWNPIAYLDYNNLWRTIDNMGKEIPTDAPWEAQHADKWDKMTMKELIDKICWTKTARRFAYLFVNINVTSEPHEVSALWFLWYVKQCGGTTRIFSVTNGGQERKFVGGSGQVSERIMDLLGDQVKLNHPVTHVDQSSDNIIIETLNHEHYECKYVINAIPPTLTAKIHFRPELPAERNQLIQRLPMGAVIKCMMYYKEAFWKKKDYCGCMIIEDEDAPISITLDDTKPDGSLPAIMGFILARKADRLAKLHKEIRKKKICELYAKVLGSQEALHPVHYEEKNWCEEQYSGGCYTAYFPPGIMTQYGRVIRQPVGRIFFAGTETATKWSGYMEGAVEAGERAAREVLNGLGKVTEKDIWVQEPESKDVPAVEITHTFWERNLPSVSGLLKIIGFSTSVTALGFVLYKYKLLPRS
# Procedure: An enzyme solution was prepared by diluting 10 µL of a 2.5 mg/mL MAO-A or MAO-B stock in 10 mL of 50 mM sodium phosphate buffer (pH 7.4). A substrate solution was prepared by diluting 200 µL of a 100 mM benzylamine (or tyramine) stock in 10 mL phosphate buffer to achieve a final concentration of 1 mM. For each 96-well plate experiment, 12.5 µL of a 1× H2O2 probe solution was added to 1 mL of the probe dilution buffer from the ROS Glo™ kit. Separately, 40 µL of cysteine and enhancer were diluted into 4 mL of Luciferin solution. In each well, 49 µL of the enzyme solution was dispensed, followed by 1 µL of the test compound, and incubated for 30 min. Then, 49 µL of the substrate solution was added, and the reaction proceeded at 37 °C for 60 min. Next, 10 µL of the H2O2 probe solution was added and incubated for 15 min. Subsequently, 40 µL of a luciferin solution containing cysteine and an enhancer was added, followed by an additional 30-minute incubation at 37 °C. Luminescence was subsequently recorded using a microplate luminescence reader (SpectraMax i3, Molecular Devices).
# [1] = system: primary cultured astrocytes; test: Intracellular H2O2 (oROS-G sensor) in 6-OHDA-treated astrocytes; assay type: cell-based
# Procedure: Intracellular H2O2 levels in astrocytes were measured using a genetically encoded oROS-G plasmid, which is highly sensitive and specific for H2O2 with rapid on-and-off kinetics. The plasmid was generously provided by Dr. Andre Berndt and was cloned under the GFAP104 promoter. Transfection into primary cultured hippocampal astrocytes was carried out using the NeoNTM transfection system (Invitrogen). Astrocytes were seeded into 96-well black plates (ibidi, USA) and treated with 6-OHDA (10 µM) in the presence of 1, 10, and 30 µM of Vuti. Fluorescence changes were monitored using a Nikon A1 confocal microscope over a period of 21 h for live cell imaging. The fluorescence intensity for each region of interest (ROI) was analyzed using Nikon software, and the data were normalized to control values for the IC50. The IC50 value for Vuti was determined using GraphPad Prism software.
smiles,measurement,setting,value
"CCOc1ccc(C2COc3c(ccc4c3CCC(C)(C)O4)C2)c(O)c1 (stereo not drawn) [Vuti, Vutiglabridin]",MPP+-induced mitochondrial damages in shSCR cells,"shPON2-SH-SY5Y cells; control scrambled shRNA cells, 1 mM MPP+ then 1 nM Vuti",significantly restored
same,"OCR (basal respiration, ATP turnover rate, maximum respiratory capacity) in shPON2 cells","shPON2-SH-SY5Y cells; shPON2 cells, 1 mM MPP+ 20 h then 1 nM Vuti 24 h",failed to restore
same,"effects on mitochondria function (MTT, ATP content, TMRE, DCF-DA-ROS, MitoSOX-ROS) in shPON2 cells","shPON2-SH-SY5Y cells; shPON2 infected cells, 1 mM MPP+ 20 h then 1 nM Vuti 24 h",considerably reduced or almost completely abolished
same,IC50,MAO-A,24.7 µM
same,ROS levels in 6-OHDA-treated astrocytes,[1]; 30 µM Vuti,significantly reduced ROS levels
same,IC50,"[1]; Astrocyte, 6-OHDA 10 µM treated primary cultured astrocytes, Vuti 1, 10, 30 µM, read-out: normalized IC50 (ROS, oROS-G sensor imaging)",21 µM
